Data as given in ChEMBL document CHEMBL1201862, “PubChem BioAssay data set” (2004).
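Following 48 hours of exposure in 96-well plates, responses at five concentrations were used to interpolate endpoints linearly. Here, GI50 denotes the concentration required for 50% inhibition of growth.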 Active and inactive are the calls of the source. No stated cut-off is given here; in the data, active = GI50 up to about 1.1 µM and inactive = higher.

Legend:
Assay in all cases: DTP human tumour cell line panel, 48 h
SK-MEL-2 = test system: SK-MEL-2
SNB-75 = test system: SNB-75
RPMI-8226 = test system: RPMI-8226
HOP-92 = test system: HOP-92
OVCAR-4 = test system: OVCAR-4
T47D = test system: T47D
K562 = test system: K562
NCI-H226 = test system: NCI-H226
NCI-H23 = test system: NCI-H23
SK-MEL-5 = test system: SK-MEL-5
OVCAR-8 = test system: OVCAR-8
SK-MEL-28 = test system: SK-MEL-28
M14 = test system: M14
SW-620 = test system: SW-620
HCT-116 = test system: HCT-116
MOLT-4 = test system: MOLT-4
SF-268 = test system: SF-268
COLO 205 = test system: COLO 205
NCI/ADR-RES = test system: NCI/ADR-RES
OVCAR-5 = test system: OVCAR-5
UACC-62 = test system: UACC-62
SK-OV-3 = test system: SK-OV-3
U-251 = test system: U-251
MDA-N = test system: MDA-N
HCC 2998 = test system: HCC 2998
PC-3 = test system: PC-3
NCI-H522 = test system: NCI-H522
SF-539 = test system: SF-539
UO-31 = test system: UO-31
DU-145 = test system: DU-145
SNB-19 = test system: SNB-19
SN12C = test system: SN12C
IGROV-1 = test system: IGROV-1
CCRF-CEM = test system: CCRF-CEM
Malme-3M = test system: Malme-3M
OVCAR-3 = test system: OVCAR-3
HOP-62 = test system: HOP-62
SR = test system: SR
CAKI-1 = test system: CAKI-1
HT-29 = test system: HT-29
TK-10 = test system: TK-10
LOX IMVI = test system: LOX IMVI
RXF 393 = test system: RXF 393
ACHN = test system: ACHN
A498 = test system: A498
786-0 = test system: 786-0
NCI-H460 = test system: NCI-H460
SF-295 = test system: SF-295
HL-60 = test system: HL-60
EKVX = test system: EKVX
MDA-MB-435 = test system: MDA-MB-435
KM12 = test system: KM12
Hs-578T = test system: Hs-578T
A549 = test system: A549
MCF7 = test system: MCF7
HCT-15 = test system: HCT-15
BT-549 = test system: BT-549
UACC-257 = test system: UACC-257
MDA-MB-231 = test system: MDA-MB-231

In the case of O=C(/C=C/c1ccccc1)Nc1ccccc1SCCCCl, the GI50 (SK-MEL-2) is reported as 22.2 µM (inactive), the GI50 (SNB-75) is reported as 17.7 µM (inactive) and the GI50 (RPMI-8226) is reported as 27.4 µM (inactive). For the same compound, the GI50 (HOP-92) was 3.67 µM (inactive), the GI50 (OVCAR-4) was 12.1 µM (inactive) and the GI50 (T47D) was 7.52 µM (inactive). For the same compound, the GI50 (K562) was 9.66 µM (inactive), the GI50 (NCI-H226) was > 33.7 µM (inactive) and the GI50 (NCI-H23) was 3.56 µM (inactive). The GI50 (SK-MEL-5) was 19.3 µM (inactive), the GI50 (OVCAR-8) was 16.5 µM (inactive) and the GI50 (SK-MEL-28) was > 47.4 µM (inactive). For the same compound, the GI50 (M14) was 20.1 µM (inactive), the GI50 (SW-620) was 6.46 µM (inactive) and the GI50 (HCT-116) was 8.91 µM (inactive). For the same compound, the GI50 (MOLT-4) was 12.7 µM (inactive), the GI50 (SF-268) was 14.4 µM (inactive) and the GI50 (COLO 205) was 15.6 µM (inactive). For the same compound, the GI50 (NCI/ADR-RES) was 3.66 µM (inactive), the GI50 (OVCAR-5) was 34 µM (inactive) and the GI50 (UACC-62) was 6.9 µM (inactive). The GI50 (SK-OV-3) was 8.41 µM (inactive), the GI50 (U-251) was 8.93 µM (inactive) and the GI50 (MDA-N) was 6.38 µM (inactive). The GI50 (HCC 2998) was 21.6 µM (inactive), the GI50 (PC-3) was 9.91 µM (inactive) and the GI50 (NCI-H522) was 4.07 µM (inactive). The GI50 (SF-539) was 8.57 µM (inactive), the GI50 (UO-31) was 7.48 µM (inactive) and the GI50 (DU-145) was 10.2 µM (inactive). For the same compound, the GI50 (SNB-19) was 19.1 µM (inactive), the GI50 (SN12C) was 8.93 µM (inactive) and the GI50 (IGROV-1) was 1.18 µM (inactive). For the same compound, the GI50 (CCRF-CEM) was 10 µM (inactive), the GI50 (Malme-3M) was 10.7 µM (inactive) and the GI50 (OVCAR-3) was 13.1 µM (inactive). For the same compound, the GI50 (HOP-62) was 15 µM (inactive), the GI50 (SR) was 9.38 µM (inactive) and the GI50 (CAKI-1) was 5.79 µM (inactive). The GI50 (HT-29) was 7.94 µM (inactive), the GI50 (TK-10) was 55.7 µM (inactive) and the GI50 (LOX IMVI) was 8.81 µM (inactive). The GI50 (RXF 393) was 8.43 µM (inactive), the GI50 (ACHN) was 20 µM (inactive) and the GI50 (A498) was 9.08 µM (inactive). The GI50 (786-0) was 13.4 µM (inactive), the GI50 (NCI-H460) was 10.2 µM (inactive) and the GI50 (SF-295) was 7.89 µM (inactive). For the same compound, the GI50 (HL-60) was 3.8 µM (inactive), the GI50 (EKVX) was 15.4 µM (inactive) and the GI50 (MDA-MB-435) was 4.95 µM (inactive). For the same compound, the GI50 (KM12) was 3.78 µM (inactive), the GI50 (Hs-578T) was 6.81 µM (inactive) and the GI50 (A549) was 25 µM (inactive). For the same compound, the GI50 (MCF7) was 4.4 µM (inactive), the GI50 (HCT-15) was 13.4 µM and the GI50 (BT-549) was 8.11 µM (inactive). The GI50 (UACC-257) was 18.2 µM (inactive) and the GI50 (MDA-MB-231) was 11.4 µM (inactive).
In the case of O=C(O)C(Sc1ccc(Cl)cc1)Sc1ccc(Cl)cc1, the GI50 (SK-MEL-2) is reported as 26.3 µM (inactive), the GI50 (SNB-75) is reported as 89.7 µM (inactive) and the GI50 (RPMI-8226) is reported as 31.6 µM (inactive). For the same compound, the GI50 (HOP-92) was 23.7 µM (inactive), the GI50 (OVCAR-4) was 48.4 µM (inactive) and the GI50 (T47D) was 64 µM (inactive). For the same compound, the GI50 (K562) was 33.1 µM (inactive), the GI50 (NCI-H226) was 51.9 µM (inactive) and the GI50 (NCI-H23) was 44.2 µM (inactive). For the same compound, the GI50 (SK-MEL-5) was 35.6 µM (inactive), the GI50 (OVCAR-8) was 43.9 µM (inactive) and the GI50 (SK-MEL-28) was 70 µM (inactive). For the same compound, the GI50 (M14) was 39.6 µM (inactive), the GI50 (SW-620) was 58.7 µM (inactive) and the GI50 (HCT-116) was 35.2 µM (inactive). The GI50 (MOLT-4) was 41.3 µM (inactive), the GI50 (SF-268) was 48.9 µM (inactive) and the GI50 (COLO 205) was 25.9 µM (inactive). The GI50 (NCI/ADR-RES) was 47.3 µM (inactive), the GI50 (OVCAR-5) was 53 µM (inactive) and the GI50 (UACC-62) was 27.7 µM (inactive). The GI50 (SK-OV-3) was > 100 µM (inactive), the GI50 (U-251) was 36.4 µM (inactive) and the GI50 (MDA-N) was 41.5 µM (inactive). The GI50 (HCC 2998) was 25.6 µM (inactive), the GI50 (PC-3) was 47.4 µM (inactive) and the GI50 (NCI-H522) was 32.1 µM (inactive). For the same compound, the GI50 (SF-539) was 39.3 µM (inactive), the GI50 (UO-31) was 29.7 µM (inactive) and the GI50 (DU-145) was 71 µM (inactive). The GI50 (SNB-19) was 40.6 µM (inactive), the GI50 (SN12C) was 47 µM (inactive) and the GI50 (IGROV-1) was 39.8 µM (inactive). The GI50 (CCRF-CEM) was 28.6 µM (inactive), the GI50 (Malme-3M) was 71 µM (inactive) and the GI50 (OVCAR-3) was 32.6 µM (inactive). The GI50 (HOP-62) was 79.3 µM (inactive), the GI50 (SR) was 39.6 µM (inactive) and the GI50 (CAKI-1) was 82.8 µM (inactive). For the same compound, the GI50 (HT-29) was 43.3 µM (inactive), the GI50 (TK-10) was 48.6 µM (inactive) and the GI50 (LOX IMVI) was 41.9 µM (inactive). The GI50 (RXF 393) was > 100 µM (inactive), the GI50 (ACHN) was 47.4 µM (inactive) and the GI50 (A498) was 34.8 µM (inactive). For the same compound, the GI50 (786-0) was 48 µM (inactive), the GI50 (NCI-H460) was 34 µM (inactive) and the GI50 (SF-295) was 46.9 µM (inactive). For the same compound, the GI50 (HL-60) was 33.8 µM (inactive), the GI50 (EKVX) was 31.5 µM (inactive) and the GI50 (MDA-MB-435) was 43.1 µM (inactive). For the same compound, the GI50 (KM12) was 37.9 µM (inactive), the GI50 (Hs-578T) was 38.3 µM (inactive) and the GI50 (A549) was 29.9 µM (inactive). The GI50 (MCF7) was 92.3 µM (inactive), the GI50 (HCT-15) was 36 µM and the GI50 (BT-549) was 54.5 µM (inactive). For the same compound, the GI50 (UACC-257) was 44.5 µM (inactive) and the GI50 (MDA-MB-231) was 66.8 µM (inactive).
With Cc1cc(NS(=O)(=O)c2ccc(NC(=O)c3ccc4nc5ccccc5c(Nc5ccc(S(=O)(=O)N=C(N)N)cc5)c4c3)cc2)no1 the GI50 (SK-MEL-2) was 16.5 µM (inactive), the GI50 (SNB-75) was 18.6 µM (inactive) and the GI50 (RPMI-8226) was 23.7 µM (inactive). The GI50 (HOP-92) was 14.7 µM (inactive), the GI50 (OVCAR-4) was 14.3 µM (inactive) and the GI50 (T47D) was 14.6 µM (inactive). The GI50 (K562) was 10.6 µM (inactive), the GI50 (NCI-H226) was 14.2 µM (inactive) and the GI50 (NCI-H23) was 18.8 µM (inactive). The GI50 (SK-MEL-5) was 16.2 µM (inactive), the GI50 (OVCAR-8) was 18.2 µM (inactive) and the GI50 (SK-MEL-28) was 18.2 µM (inactive). For the same compound, the GI50 (M14) was 15.1 µM (inactive), the GI50 (SW-620) was 20.8 µM (inactive) and the GI50 (HCT-116) was 17.3 µM (inactive). For the same compound, the GI50 (MOLT-4) was 17.1 µM (inactive), the GI50 (SF-268) was 19 µM (inactive) and the GI50 (COLO 205) was 18.8 µM (inactive). For the same compound, the GI50 (NCI/ADR-RES) was 25.2 µM (inactive), the GI50 (OVCAR-5) was 17.5 µM (inactive) and the GI50 (UACC-62) was 21.7 µM (inactive). For the same compound, the GI50 (SK-OV-3) was 23.3 µM (inactive), the GI50 (U-251) was 16.2 µM (inactive) and the GI50 (MDA-N) was 19.5 µM (inactive). The GI50 (HCC 2998) was 16 µM (inactive), the GI50 (PC-3) was 16.9 µM (inactive) and the GI50 (NCI-H522) was 17.1 µM (inactive). For the same compound, the GI50 (SF-539) was 20.8 µM (inactive), the GI50 (UO-31) was 17.2 µM (inactive) and the GI50 (DU-145) was 17.1 µM (inactive). For the same compound, the GI50 (SNB-19) was 29 µM (inactive), the GI50 (SN12C) was 17 µM (inactive) and the GI50 (IGROV-1) was 16.2 µM (inactive). The GI50 (CCRF-CEM) was 11.2 µM (inactive), the GI50 (Malme-3M) was 15.6 µM (inactive) and the GI50 (OVCAR-3) was 17.7 µM (inactive). For the same compound, the GI50 (HOP-62) was 17.5 µM (inactive), the GI50 (SR) was 18.3 µM (inactive) and the GI50 (CAKI-1) was 18.9 µM (inactive). For the same compound, the GI50 (HT-29) was 21.4 µM (inactive), the GI50 (TK-10) was 25.5 µM (inactive) and the GI50 (LOX IMVI) was 9.46 µM (inactive). For the same compound, the GI50 (RXF 393) was 15.3 µM (inactive), the GI50 (ACHN) was 13.6 µM (inactive) and the GI50 (A498) was 19.5 µM (inactive). The GI50 (786-0) was 15.2 µM (inactive), the GI50 (NCI-H460) was 17.4 µM (inactive) and the GI50 (SF-295) was 16.9 µM (inactive). The GI50 (HL-60) was 17.5 µM (inactive), the GI50 (EKVX) was 16.4 µM (inactive) and the GI50 (MDA-MB-435) was 19.9 µM (inactive). For the same compound, the GI50 (KM12) was 17.1 µM (inactive), the GI50 (Hs-578T) was 20 µM (inactive) and the GI50 (A549) was 16.9 µM (inactive). For the same compound, the GI50 (MCF7) was 19.8 µM (inactive), the GI50 (HCT-15) was 15.4 µM and the GI50 (BT-549) was 20.6 µM (inactive). For the same compound, the GI50 (UACC-257) was 26.2 µM (inactive) and the GI50 (MDA-MB-231) was 14.5 µM (inactive).
